The target in data set [1] is T1, MRP (Homo sapiens, UniProt P33527).
T1 construct: Human promyelocytic leukemia HL-60/ADR cells, which express MRP; endogenous in cells; host or cells: HL-60/ADR human promyelocytic leukemia cells
The data set can be described thus: Reversal of MRP-mediated MDR: potentiation of vincristine cytotoxicity toward HL-60/ADR cells. It is filed as cell-based.

The nature of data set [2]: Intrinsic cytotoxicity of the compounds toward drug-sensitive MCF-7 cells (sulforhodamine B binding assay). The note with it: human, Cytotoxicity (% killed at 10 μg/ml). (Sulforhodamine B stains cellular protein and so reports cell mass.)
Data set [3] relates to MCF-7 human breast carcinoma cells. The conditions noted are these: mcf-7 cells, 48 h.
The nature of data set [4]: in vitro. The conditions noted are these: human, mcf-7 cells, Cytotoxicity (% killed at 10 μg/ml).
In data set [5] the target is Pgp (Homo sapiens, UniProt P08183).
Chain of Pgp (P08183 whole entry): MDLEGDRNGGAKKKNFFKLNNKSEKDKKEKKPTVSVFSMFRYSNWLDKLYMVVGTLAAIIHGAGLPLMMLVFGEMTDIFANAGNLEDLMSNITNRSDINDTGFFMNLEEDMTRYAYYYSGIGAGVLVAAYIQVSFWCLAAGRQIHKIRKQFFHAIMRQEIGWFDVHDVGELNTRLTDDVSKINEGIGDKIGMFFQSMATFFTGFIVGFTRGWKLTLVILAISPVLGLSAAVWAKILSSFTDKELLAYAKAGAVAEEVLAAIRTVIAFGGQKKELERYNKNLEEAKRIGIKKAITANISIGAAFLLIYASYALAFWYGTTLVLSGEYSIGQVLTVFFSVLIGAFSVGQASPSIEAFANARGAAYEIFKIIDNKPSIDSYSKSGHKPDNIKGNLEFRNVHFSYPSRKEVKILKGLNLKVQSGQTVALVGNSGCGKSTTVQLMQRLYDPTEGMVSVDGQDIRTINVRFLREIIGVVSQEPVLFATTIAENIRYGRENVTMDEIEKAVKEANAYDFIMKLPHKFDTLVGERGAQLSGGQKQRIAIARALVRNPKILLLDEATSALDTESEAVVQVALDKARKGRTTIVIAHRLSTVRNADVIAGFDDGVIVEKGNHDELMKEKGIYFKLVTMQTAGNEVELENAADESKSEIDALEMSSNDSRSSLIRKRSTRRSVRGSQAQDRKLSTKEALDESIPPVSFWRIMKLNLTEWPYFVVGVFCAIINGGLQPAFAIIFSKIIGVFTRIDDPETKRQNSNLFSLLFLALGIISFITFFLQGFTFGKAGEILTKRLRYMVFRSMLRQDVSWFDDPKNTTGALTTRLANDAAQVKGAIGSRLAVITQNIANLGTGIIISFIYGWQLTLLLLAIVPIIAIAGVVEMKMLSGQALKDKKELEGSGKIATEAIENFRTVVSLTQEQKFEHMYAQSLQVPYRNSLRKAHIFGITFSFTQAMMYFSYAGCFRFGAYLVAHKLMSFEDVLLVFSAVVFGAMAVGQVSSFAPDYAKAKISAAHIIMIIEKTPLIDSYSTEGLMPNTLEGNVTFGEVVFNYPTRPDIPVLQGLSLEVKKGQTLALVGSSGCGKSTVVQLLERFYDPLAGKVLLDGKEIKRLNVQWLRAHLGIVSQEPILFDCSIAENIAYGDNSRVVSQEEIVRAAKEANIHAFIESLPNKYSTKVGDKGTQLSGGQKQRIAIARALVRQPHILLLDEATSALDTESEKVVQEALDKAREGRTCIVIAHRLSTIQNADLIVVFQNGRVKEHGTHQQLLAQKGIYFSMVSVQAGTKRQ
Setting [6] is: chemosensitizing score on a scale of 0-5 (best activity=5; equal or superior to verapamil = 4, 4.5 or 5), HL-60/ADR cells, 2 nM vincristine, 48 h.

Where two headings read alike, the source gives them in different places.

T1 sequence (P33527 whole entry): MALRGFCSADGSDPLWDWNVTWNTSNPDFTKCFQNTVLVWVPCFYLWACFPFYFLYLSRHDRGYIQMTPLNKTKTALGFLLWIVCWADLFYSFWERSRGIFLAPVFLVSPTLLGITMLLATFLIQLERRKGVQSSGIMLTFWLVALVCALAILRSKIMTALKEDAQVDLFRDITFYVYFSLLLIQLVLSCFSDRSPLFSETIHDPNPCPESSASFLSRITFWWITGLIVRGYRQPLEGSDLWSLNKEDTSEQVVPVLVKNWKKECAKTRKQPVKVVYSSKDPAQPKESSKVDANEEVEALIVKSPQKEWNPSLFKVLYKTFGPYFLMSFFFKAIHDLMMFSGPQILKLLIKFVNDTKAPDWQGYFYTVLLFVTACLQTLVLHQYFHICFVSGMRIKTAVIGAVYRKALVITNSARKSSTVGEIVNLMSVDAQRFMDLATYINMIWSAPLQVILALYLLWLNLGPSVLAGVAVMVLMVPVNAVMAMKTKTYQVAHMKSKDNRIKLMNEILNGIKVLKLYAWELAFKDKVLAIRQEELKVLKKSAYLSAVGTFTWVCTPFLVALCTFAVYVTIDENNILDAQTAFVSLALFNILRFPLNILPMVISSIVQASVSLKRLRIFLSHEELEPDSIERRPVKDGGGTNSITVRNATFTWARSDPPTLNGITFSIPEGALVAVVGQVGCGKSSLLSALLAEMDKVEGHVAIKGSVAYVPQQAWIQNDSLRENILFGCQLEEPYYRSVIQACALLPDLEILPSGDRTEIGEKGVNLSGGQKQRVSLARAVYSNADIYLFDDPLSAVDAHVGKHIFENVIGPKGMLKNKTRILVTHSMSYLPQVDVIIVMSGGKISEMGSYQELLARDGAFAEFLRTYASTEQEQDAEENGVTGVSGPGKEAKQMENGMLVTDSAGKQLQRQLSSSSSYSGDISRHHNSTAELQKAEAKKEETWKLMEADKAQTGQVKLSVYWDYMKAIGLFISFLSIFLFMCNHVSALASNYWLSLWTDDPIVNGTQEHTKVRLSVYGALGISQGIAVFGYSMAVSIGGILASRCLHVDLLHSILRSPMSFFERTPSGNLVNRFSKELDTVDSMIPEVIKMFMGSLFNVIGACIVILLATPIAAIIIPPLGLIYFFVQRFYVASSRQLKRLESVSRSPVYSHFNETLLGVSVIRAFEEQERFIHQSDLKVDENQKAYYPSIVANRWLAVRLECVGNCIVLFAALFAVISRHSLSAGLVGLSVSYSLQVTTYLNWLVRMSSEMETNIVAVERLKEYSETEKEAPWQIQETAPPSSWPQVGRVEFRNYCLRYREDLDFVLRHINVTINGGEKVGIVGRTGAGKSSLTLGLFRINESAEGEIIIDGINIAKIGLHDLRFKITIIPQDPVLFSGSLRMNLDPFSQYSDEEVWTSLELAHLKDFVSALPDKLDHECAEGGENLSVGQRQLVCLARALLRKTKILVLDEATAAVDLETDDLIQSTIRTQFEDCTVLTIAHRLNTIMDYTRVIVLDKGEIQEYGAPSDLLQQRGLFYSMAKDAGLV

Turning to `COc1cc(C2(O)CC3CCC2N(Cc2ccccc2)C3)cc(OC)c1OC` (stereo not drawn) [Compound I-2, 2-benzyl-cis-6-hydroxy-trans-6-(3,4,5-trimethoxyphenyl)-2-azabicyclco[2.2.2]octane], the MRP antagonism in data set [1] (setting [6]) was found to be 3. The same compound registered a cytotoxicity at 48 h in data set [2] of 39%.

As to `COc1cc(C2CC3CCC2N(Cc2ccccc2)C3)cc(OC)c1OC` (stereo not shown) [Compound I-3, 2-benzyl-6-(3,4,5-trimethoxyphenyl)-2-azabicyclo[2.2.2]octane], the MRP antagonism in data set [1] (setting [6]) worked out at 4. In data set [2], this compound came in with a cytotoxicity at 48 h of 22%.

On to `COc1cc(C2CC3CCC2NC3)cc(OC)c1OC` (stereo not drawn) [Compound I-4, cis-6-(3,4,5-trimethoxyphenyl)-2-azabicyclo[2.2.2]octane], for which the MRP antagonism in data set [1] (setting [6]) came to 2. Also, the “Cytotoxicity (% killed at 10 μg/ml)” value in data set [3] came out at 12%.

Turning to `COc1cc(C2CC3CCC2NC3)cc(OC)c1OC` (stereo not drawn) [Compound I-5, trans-6-(3,4,5-trimethoxyphenyl)-2-azabicyclo[2.2.2]octane], the MRP antagonism in data set [1] (setting [6]) amounted to 4. Moreover, in data set [3], the “Cytotoxicity (% killed at 10 μg/ml)” value is given as 0%.

Regarding `Oc1ccc(C2(O)CC3CCC2N(Cc2ccccc2)C3)cc1O` (stereo not drawn) [Compound I-6, 2-benzyl-cis-6-hydroxy-trans-6-(3,4-dihydroxyphenyl)-2-azabicyclo[2.2. 2]octane], the MRP antagonism in data set [1] (setting [6]) was 1.5. Further, in data set [2], the cytotoxicity at 48 h was 21%.

On to `CCN1CC2CCC1C(Nc1ccccc1)C2` (stereo not shown) [Compound I-7, 2-ethyl-6-anilino-2-azabicyclo[2.2.2]octane], for which the MRP antagonism in data set [1] (setting [6]) turned out to be 1. The cytotoxicity at 48 h in data set [4] was determined as 26%.

For the compound `OC1CC2CCC1N(Cc1ccccc1)C2` (stereo not drawn) [Compound I-9, 2-benzyl-6-trans-hydroxy-2-azabicyclo[2.2.2]octane], in data set [1] (setting [6]), the MRP antagonism was 0. Further, in data set [4], the cytotoxicity at 48 h amounted to 0%.

Consider `OC1(c2ccc(OCc3ccccc3)c(OCc3ccccc3)c2)CC2CCC1N(Cc1ccccc1)C2` (stereo not shown) [Compound I-10, 2-benzyl-6-(3,4-dibenzyloxyphenyl)-6-hydroxy-2-azabicyclo[2.2.2]octane], for which the MRP antagonism in data set [1] (setting [6]) amounted to 0. The compound also came in with a cytotoxicity at 48 h in data set [2] of 0%.

In data set [2], `CN1CC2CCC1C(=O)C2=C(c1ccccc1)c1ccccc1` (stereo not shown) [Compound I-11, 5-diphenylmethylidene-2-methyl-2-azabicyclo[2.2.2]octan-6-one] had a cytotoxicity at 48 h of 8%.

`NNC(=O)OC1CC2CCC(C1)N2C(=O)Oc1ccc(Cl)cc1` (stereo not shown) [II-1, 3-hydrazinocarbonyloxy-8-(4-chlorophenoxycarbonyl)-8-azabicyclo[3.2. 1]octane]: the MRP antagonism in data set [1] was 2. Also, the Pgp antagonism in data set [5] was found to be 3.

The values above are taken from US6248752A, “Azabicyclooctane compositions and methods for enhancing chemotherapy” (priority 1999, dated 2001).
